Where “and” joins values, the source holds several entries; their conditions need not be identical. Equal entries are not always repeated. Where two headings read alike, the source gives them in different places.
Columns and labels:
[1] = Plasma AT2220 (1-deoxynojirimycin hydrochloride) pharmacokinetics by LC-MS/MS in Pompe patients; type: in vivo, human; details: for Tmax / half-life / AUC(0-t) / AUC(0-inf) / Cmax: human, plasma
Method: Blood samples for pharmacokinetic analysis will be collected before dosing 1-deoxynojirimycin hydrochloride and at 1 hour after administration of 1-deoxynojirimycin hydrochloride (i.e., immediately before initiation of the alglucosidase alfa infusion) and over the 24-hour period after initiation of the alglucosidase alfa infusion. Plasma and WBC GAA enzyme activity, plasma 1-deoxynojirimycin hydrochloride concentrations and plasma anti-rhGAA antibody titer will be determined from the collected blood samples at the times summarized in Table 2. A 12-lead ECG will be performed at the end of the alglucosidase alfa infusion, immediately after collection of the post-infusion blood sample.
Concentrations of 1-deoxynojirimycin hydrochloride in blood samples will be measured in plasma using a validated LC-MS/MS assay. GAA activity in plasma will be determined by a validated assay measuring enzyme activity using 4-MUG, with and without Con A. GAA protein levels will be measured by Western blotting using anti-human GAA antibody.
Non-compartmental pharmacokinetic parameters of AUC0-t, AUCinfinity, Cmax, tmax, kel and half-life will be calculated from plasma 1-deoxynojirimycin hydrochloride concentrations and plasma rhGAA enzyme levels. Pharmacokinetic parameters will be summarized by treatment using descriptive statistics. The AUC0-t, AUCinfinity ratios for GAA enzyme activity alone or after administration with 1-deoxynojirimycin hydrochloride will be calculated. Pharmacokinetic and pharmacodynamic data for those subjects receiving Myozyme® and Lumizyme® will be analyzed separately.

[2] = Plasma and tissue distribution of 1-DNJ and N-butyl-DNJ in wild type C57BL/6 mice; details: mouse, in vivo, oral 100 mg/kg
Method: Eight-week old wild type C57BL/6 mice where administered an oral dose of 100 mg/kg of 1-DNJ or N-butyl-DNJ. […] The concentration of drug in plasma is expressed as ng/ml. The concentration of drug in tissue samples is expressed as ng/g.

[3] = system: T cells derived from blood from 50 healthy donors; assay: Ex vivo T cell immunogenicity (EpiScreen assay); type: cell-based, human; details: T cells from 50 healthy donors, addition of AT2220
Excerpt: By stabilizing the folded and active form of the rhGAA enzyme, AT2220 may mitigate ERT-induced immunogenicity since unfolded and aggregated proteins are generally more antigenic than properly folded proteins. […] The studies utilized Antitope Ltd.'s EpiScreen™ assay and are being repeated in samples from the Pompe patients in the study described by Examples 1-3.

[4] = Cohort 3, 250 mg AT2220, Max, N=6
[5] = Cohort 3, 250 mg AT2220, Min, N=6
[6] = Cohort 3, 250 mg AT2220, individual subjects

In the case of OC[C@H]1NC[C@H](O)[C@@H](O)[C@@H]1O [AT2220, (2R,3R,4R,5S)-2-hydroxymethyl-piperidine-3,4,5-triol], the “linearity of plasma pharmacokinetics” value ([1]; 50 mg and 100 mg doses) is reported as “approximately linear”, the “linearity of plasma pharmacokinetics” value ([1]; 50 mg and 100 mg doses, listed as 1-DNJ-HCl) is reported as “approximately linear PK” and the “increase in Cmax and AUC with dose” value ([1]; 50 mg to 100 mg) is reported as roughly 2 fold. The “Plasma AT2220 AUC0-∞ Ratio” value ([1]; 100 mg AT2220 (N = 6) relative to 50 mg) was 1.9, the “AUC0-∞ Ratio, plasma AT2220” value ([1]; 100 mg vs 50 mg dose) was 1.9 and the “Plasma AT2220 AUC0-∞ Ratio” value ([1]; 250 mg AT2220 (N = 6) relative to 50 mg) was 3.2. The “Plasma AT2220 AUC0-T” value [1, 4] was 29670 ng·h/mL, the “Plasma AT2220 AUC0-∞” value [1, 4] was 29916 ng·h/mL and the “Plasma AT2220 Cmax” value [1, 4] was 4750 ng/mL. The “Plasma AT2220 T½” value [1, 4] was 4.6 h, the “Plasma AT2220 AUC0-T” value [1, 5] was 18321 ng·h/mL and the “Plasma AT2220 AUC0-∞” value [1, 5] was 18711 ng·h/mL. The “Plasma AT2220 Cmax” value [1, 5] was 2090 ng/mL, the “Plasma AT2220 Tmax” value [1, 5] was 2.0 h and the “Plasma AT2220 T½” value [1, 5] was 3.0 h. The “Plasma AT2220 AUC0-T” value [1, 6] was 19344 ng·h/mL and 29670 ng·h/mL and 22230 ng·h/mL and 18321 ng·h/mL and 24278 ng·h/mL, the “Plasma AT2220 AUC0-∞” value [1, 6] was 19534 ng·h/mL and 29916 ng·h/mL and 22345 ng·h/mL and 18711 ng·h/mL and 24558 ng·h/mL and the “Plasma AT2220 Cmax” value [1, 6] was 2090 ng/mL and 2740 ng/mL and 4750 ng/mL and 3620 ng/mL and 2350 ng/mL and 4220 ng/mL. For the same molecule, the “Plasma AT2220 Tmax” value [1, 6] was 2.0 h, the Tmax ([1]; both sexes, oral, 50 mg and 100 mg doses, read-out: rate of absorption (Tmax)) was 2 to 3 h and the “increase in mean AUC, plasma AT2220” value ([1]; from 50 mg to 100 mg) was 1.9 fold. For the same molecule, the “increase in mean Cmax, plasma AT2220” value ([1]; from 50 mg to 100 mg) was 1.8 fold, the half-life ([1]; oral, 50 mg, 50 mg AT2220 (N = 4), Cohort 1, Arithmetic mean (SD), read-out: Plasma AT2220 t½ (converted)) was 3.1 h and the AUC(0-t) ([1]; oral, 50 mg, 50 mg AT2220 (N = 4), Cohort 1, Geometric mean (CV %), read-out: Plasma AT2220 AUC0-T) was 6970 ng·h/mL. The AUC(0-inf) ([1]; oral, 50 mg, 50 mg AT2220 (N = 4), Cohort 1, Geometric mean (CV %), read-out: Plasma AT2220 AUC0-∞) was 7010 ng·h/mL, the Cmax ([1]; oral, 50 mg, 50 mg AT2220 (N = 4), Cohort 1, Geometric mean (CV %), read-out: Plasma AT2220 Cmax) was 1040 ng/mL and the Tmax ([1]; oral, 50 mg, 50 mg AT2220 (N = 4), Cohort 1, Median (range), read-out: Plasma AT2220 Tmax) was 2 h. For the same molecule, the half-life ([1]; oral, 100 mg, 100 mg AT2220 (N = 6), Cohort 2, Arithmetic mean (SD), read-out: Plasma AT2220 t½ (converted)) was 3.4 h, the AUC(0-t) ([1]; oral, 100 mg, 100 mg AT2220 (N = 6), Cohort 2, Geometric mean (CV %), read-out: Plasma AT2220 AUC0-T) was 13000 ng·h/mL and the AUC(0-inf) ([1]; oral, 100 mg, 100 mg AT2220 (N = 6), Cohort 2, Geometric mean (CV %), read-out: Plasma AT2220 AUC0-∞) was 13100 ng·h/mL. It also gave a Cmax ([1]; oral, 100 mg, 100 mg AT2220 (N = 6), Cohort 2, Geometric mean (CV %), read-out: Plasma AT2220 Cmax) of 1860 ng/mL, a Tmax ([1]; oral, 100 mg, 100 mg AT2220 (N = 6), Cohort 2, Median (range), read-out: Plasma AT2220 Tmax) of 3 h and a half-life ([1]; oral, 250 mg, 250 mg AT2220 (N = 6), Cohort 3, Arithmetic mean (SD), read-out: Plasma AT2220 t½ (converted)) of 3.7 h. It also gave an AUC(0-t) ([1]; oral, 250 mg, 250 mg AT2220 (N = 6), Cohort 3, Geometric mean (CV %), read-out: Plasma AT2220 AUC0-T) of 21800 ng·h/mL, an AUC(0-inf) ([1]; oral, 250 mg, 250 mg AT2220 (N = 6), Cohort 3, Geometric mean (CV %), read-out: Plasma AT2220 AUC0-∞) of 22100 ng·h/mL and a Cmax ([1]; oral, 250 mg, 250 mg AT2220 (N = 6), Cohort 3, Geometric mean (CV %), read-out: Plasma AT2220 Cmax) of 3150 ng/mL. The Tmax ([1]; oral, 250 mg, 250 mg AT2220 (N = 6), Cohort 3, Median (range), read-out: Plasma AT2220 Tmax) was 2 h, the AUC(0-t) ([1]; oral, 250 mg, Cohort 3, 250 mg AT2220, Geometric Mean, N=6, read-out: Plasma AT2220 AUC0-T) was 21800 ng·h/mL and the AUC(0-inf) ([1]; oral, 250 mg, Cohort 3, 250 mg AT2220, Geometric Mean, N=6, read-out: Plasma AT2220 AUC0-∞) was 22100 ng·h/mL. The Cmax ([1]; oral, 250 mg, Cohort 3, 250 mg AT2220, Geometric Mean, N=6, read-out: Plasma AT2220 Cmax) was 3150 ng/mL, the Tmax ([1]; oral, 250 mg, Cohort 3, 250 mg AT2220, Geometric Mean, N=6, read-out: Plasma AT2220 Tmax) was 2.3 h and the half-life ([1]; oral, 250 mg, Cohort 3, 250 mg AT2220, Geometric Mean, N=6, read-out: Plasma AT2220 T½ (converted)) was 3.7 h. It also gave an AUC(0-t) ([1]; oral, 250 mg, Cohort 3, 250 mg AT2220, Mean, N=6, read-out: Plasma AT2220 AUC0-T) of 22100 ng·h/mL, an AUC(0-inf) ([1]; oral, 250 mg, Cohort 3, 250 mg AT2220, Mean, N=6, read-out: Plasma AT2220 AUC0-∞) of 22400 ng·h/mL and a Cmax ([1]; oral, 250 mg, Cohort 3, 250 mg AT2220, Mean, N=6, read-out: Plasma AT2220 Cmax) of 3300 ng/mL. For the same molecule, the Tmax ([1]; oral, 250 mg, Cohort 3, 250 mg AT2220, Mean, N=6, read-out: Plasma AT2220 Tmax) was 2.3 h, the half-life ([1]; oral, 250 mg, Cohort 3, 250 mg AT2220, Mean, N=6, read-out: Plasma AT2220 T½ (converted)) was 3.7 h and the AUC(0-t) ([1]; oral, 250 mg, Cohort 3, 250 mg AT2220, Median, N=6, read-out: Plasma AT2220 AUC0-T) was 20800 ng·h/mL. It also gave an AUC(0-inf) ([1]; oral, 250 mg, Cohort 3, 250 mg AT2220, Median, N=6, read-out: Plasma AT2220 AUC0-∞) of 20900 ng·h/mL, a Cmax ([1]; oral, 250 mg, Cohort 3, 250 mg AT2220, Median, N=6, read-out: Plasma AT2220 Cmax) of 3180 ng/mL and a Tmax ([1]; oral, 250 mg, Cohort 3, 250 mg AT2220, Median, N=6, read-out: Plasma AT2220 Tmax) of 2 h. The half-life ([1]; oral, 250 mg, Cohort 3, 250 mg AT2220, Median, N=6, read-out: Plasma AT2220 T½ (converted)) was 3.6 h, the AUC(0-t) ([1]; oral, 250 mg, Cohort 3, 250 mg AT2220, individual subjects, read-out: Plasma AT2220 AUC0-T) was 18700 ng·h/mL and the AUC(0-inf) ([1]; oral, 250 mg, Cohort 3, 250 mg AT2220, individual subjects, read-out: Plasma AT2220 AUC0-∞) was 19300 ng·h/mL. The Tmax ([1]; oral, 250 mg, Cohort 3, 250 mg AT2220, individual subjects, read-out: Plasma AT2220 Tmax) was 3 h, the half-life ([1]; oral, 250 mg, Cohort 3, 250 mg AT2220, individual subjects, read-out: Plasma AT2220 T½ (converted)) was 4.6 h and the half-life ([1]; po, 50 mg, 50 mg single oral dose (N=4), arithmetic mean (SD), read-out: t½, plasma AT2220 (converted)) was 3.1 h. For the same molecule, the AUC(0-t) ([1]; po, 50 mg, 50 mg single oral dose (N=4), geometric mean (CV %), read-out: AUC0-T, plasma AT2220) was 6970 ng·h/mL, the AUC(0-inf) ([1]; po, 50 mg, 50 mg single oral dose (N=4), geometric mean (CV %), read-out: AUC0-∞, plasma AT2220) was 7010 ng·h/mL and the Tmax ([1]; po, 50 mg, 50 mg single oral dose (N=4), median (range), read-out: Tmax, plasma AT2220) was 2 h. For the same molecule, the Cmax ([1]; po, 50 mg, 50 mg single oral dose (N=4, Cohort 1), geometric mean (CV %), read-out: Cmax, plasma AT2220) was 1040 ng/mL, the half-life ([1]; po, 100 mg, 100 mg single oral dose (N=6), arithmetic mean (SD), read-out: t½, plasma AT2220 (converted)) was 3.4 h and the AUC(0-t) ([1]; po, 100 mg, 100 mg single oral dose (N=6), geometric mean (CV %), read-out: AUC0-T, plasma AT2220) was 13000 ng·h/mL. It also gave an AUC(0-inf) ([1]; po, 100 mg, 100 mg single oral dose (N=6), geometric mean (CV %), read-out: AUC0-∞, plasma AT2220) of 13100 ng·h/mL, a Tmax ([1]; po, 100 mg, 100 mg single oral dose (N=6), median (range), read-out: Tmax, plasma AT2220) of 3 h and a Cmax ([1]; po, 100 mg, 100 mg single oral dose (N=6, Cohort 2), geometric mean (CV %), read-out: Cmax, plasma AT2220) of 1860 ng/mL. The “increase in mean AUC, plasma AT2220” value ([1]; to 250 mg) was 3.2 fold, the “increase in mean Cmax, plasma AT2220” value ([1]; to 250 mg) was 3.0 fold and the Cmax [2] was 120 µM. The “immunogenicity of Myozyme and Lumizyme” value [3] was “may significantly reduce the immunogenicity”.
